This passage reports half-life and cGMP response relative to 1 uM CNP22 (%) results from patent US8377884B2, “Variants of C-type natriuretic peptides” (Biomarin Pharmaceutical Inc., priority 2007, dated 2013).

The target of data set [1] is neutral endopeptidase (NEP) (Homo sapiens, UniProt P08473). The experiment in a line: In vitro neutral endopeptidase (NEP) cleavage assay. Particulars: human, pH 7. As for the experimental part:
To determine the effects of amino acid substitutions, amino acid extensions, backbone modifications, side chain modifications and PEGylation on the susceptibility of CNP variants to neutral endopeptidase (NEP) cleavage, peptide cleavage assays were carried out using an in vitro assay that monitored disappearance of the non-cleaved CNP variant.
Recombinant human NEP (1 ug/mL final concentration) was added to 100 uM CNP variant diluted in 0.1 M Tris, pH 7. The reaction mixture was incubated at 37° C. for various periods of time, and the reaction was quenched with EDTA (10 mM final) followed by heat denaturation. The reaction mixture was reduced and then the reaction products were analyzed using HPLC and mass spectroscopy. The half-life of the CNP variant was calculated based on the disappearance of intact CNP variant over time.

In another data set the target is T1, NPR-B (Mus musculus, UniProt Q6VVW5).
T1 construct: Murine NIH3T3 cells express endogenously the CNP signaling receptor, NPR-B; endogenous in cells; host or cells: NIH3T3 (murine fibroblasts)
T1 sequence (Q6VVW5 17-1047): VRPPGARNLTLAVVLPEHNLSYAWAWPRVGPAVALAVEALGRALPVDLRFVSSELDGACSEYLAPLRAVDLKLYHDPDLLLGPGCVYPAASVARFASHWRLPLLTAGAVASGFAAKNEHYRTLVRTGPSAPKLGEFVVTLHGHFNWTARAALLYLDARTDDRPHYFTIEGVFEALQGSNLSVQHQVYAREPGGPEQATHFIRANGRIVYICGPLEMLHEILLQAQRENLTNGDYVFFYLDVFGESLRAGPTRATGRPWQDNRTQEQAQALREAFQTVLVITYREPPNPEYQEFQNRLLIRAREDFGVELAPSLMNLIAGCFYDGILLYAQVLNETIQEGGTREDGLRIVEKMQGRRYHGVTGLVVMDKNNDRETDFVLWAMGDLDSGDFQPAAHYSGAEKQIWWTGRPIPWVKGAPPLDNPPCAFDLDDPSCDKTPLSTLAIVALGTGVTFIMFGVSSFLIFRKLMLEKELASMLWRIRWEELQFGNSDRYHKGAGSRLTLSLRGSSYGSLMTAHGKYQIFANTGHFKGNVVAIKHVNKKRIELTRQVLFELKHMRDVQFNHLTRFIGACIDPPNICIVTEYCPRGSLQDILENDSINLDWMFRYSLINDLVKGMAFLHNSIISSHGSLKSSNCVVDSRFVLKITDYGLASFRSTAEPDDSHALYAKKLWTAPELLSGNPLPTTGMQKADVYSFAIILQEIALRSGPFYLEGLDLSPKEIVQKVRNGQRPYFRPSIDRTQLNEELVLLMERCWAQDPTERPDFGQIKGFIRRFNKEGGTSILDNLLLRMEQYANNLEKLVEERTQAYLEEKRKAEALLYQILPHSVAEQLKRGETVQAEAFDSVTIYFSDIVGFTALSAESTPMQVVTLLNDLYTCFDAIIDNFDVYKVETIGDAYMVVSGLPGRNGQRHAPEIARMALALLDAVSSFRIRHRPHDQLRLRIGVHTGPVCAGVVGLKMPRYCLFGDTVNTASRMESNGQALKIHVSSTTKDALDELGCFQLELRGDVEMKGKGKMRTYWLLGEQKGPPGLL
The experiment in a line: Stimulation of cGMP production in NIH3T3 cells. The settings on record: for cGMP response relative to 1 uM CNP22 (%) at 0.01 µM: read-out: cGMP Response rel. to 1 uM CNP22, 10 nM; for cGMP response relative to 1 uM CNP22 (%) at 1 µM: read-out: cGMP Response rel. to 1 uM CNP22, 1 uM. The format is cell-based, Murine.

Setting [2] is: NIH3T3 cells, 10 nM natriuretic peptide, normalized to cell number and cGMP production with 1 uM wtCNP22.
Where [3] appears, read: NIH3T3 cells, 1 uM natriuretic peptide, normalized to cell number and cGMP production with 1 uM wtCNP22.

Read-outs that look alike come from different tables or passages of the source. Bridge positions count the residues as written; N and C are the ends. Ends that are not written are not given here. Peptide text beside a SMILES is read from it. * marks the point of attachment. Heptanoyl = CCCCCCC(=O)* Some results are limits rather than exact numbers.

Sequence of neutral endopeptidase (NEP) (P08473 whole entry): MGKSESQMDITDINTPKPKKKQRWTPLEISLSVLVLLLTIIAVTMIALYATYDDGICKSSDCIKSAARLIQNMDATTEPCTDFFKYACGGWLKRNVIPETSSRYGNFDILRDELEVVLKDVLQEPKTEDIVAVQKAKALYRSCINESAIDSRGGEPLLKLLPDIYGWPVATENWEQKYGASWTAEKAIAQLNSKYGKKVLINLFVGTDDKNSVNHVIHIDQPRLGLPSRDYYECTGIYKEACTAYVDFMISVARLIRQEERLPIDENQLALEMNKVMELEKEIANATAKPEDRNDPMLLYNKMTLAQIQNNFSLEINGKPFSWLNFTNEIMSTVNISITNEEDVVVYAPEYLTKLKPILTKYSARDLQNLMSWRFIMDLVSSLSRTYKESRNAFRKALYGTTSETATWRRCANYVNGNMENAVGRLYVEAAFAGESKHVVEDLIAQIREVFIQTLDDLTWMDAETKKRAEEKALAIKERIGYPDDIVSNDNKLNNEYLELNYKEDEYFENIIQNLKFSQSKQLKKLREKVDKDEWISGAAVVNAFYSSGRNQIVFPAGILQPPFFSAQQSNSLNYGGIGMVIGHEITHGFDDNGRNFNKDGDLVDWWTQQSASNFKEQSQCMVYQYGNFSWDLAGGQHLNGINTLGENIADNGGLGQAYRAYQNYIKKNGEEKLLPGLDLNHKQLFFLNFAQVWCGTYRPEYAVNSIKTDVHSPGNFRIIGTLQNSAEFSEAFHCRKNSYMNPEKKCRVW

Take `CC[C@H](C)[C@@H]1NC(=O)[C@H](CCCNC(=N)N)NC(=O)[C@H](CC(=O)O)NC(=O)[C@H](CC(C)C)NC(=O)[C@H](CCCCN)NC(=O)[C@H](CC(C)C)NC(=O)CNC(=O)[C@H](Cc2ccccc2)NC(=O)[C@@H](NC(=O)CNC(=O)[C@H](CCCCN)NC(=O)[C@H](CO)NC(=O)[C@H](CC(C)C)NC(=O)CNC(=O)CCCC(=O)NCCOCCOCCOCCOCCC(=O)NC(COCCC(=O)NCCOCCOCCOCCOCCOCCOCCOCCOCCOCCOCCOCCOC)(COCCC(=O)NCCOCCOCCOCCOCCOCCOCCOCCOCCOCCOCCOCCOC)COCCC(=O)NCCOCCOCCOCCOCCOCCOCCOCCOCCOCCOCCOCCOC)CSSC[C@@H](C(=O)O)NC(=O)CNC(=O)[C@H](CC(C)C)NC(=O)CNC(=O)[C@H](CO)NC(=O)[C@H](CCSC)NC(=O)[C@H](CO)NC(=O)CNC1=O` [PEO4-(PEO12)3 (branched)-CNP22]: the half-life at 100 uM in data set [1] is > 2.67 h. Besides, the cGMP response relative to 1 uM CNP22 (%) at 0.01 µM on NPR-B (setting [2]) was 17 ± 1%. The cGMP response relative to 1 uM CNP22 (%) at 1 µM at NPR-B (setting [3]) was 52 ± 6%.
`CCCCCCC(=O)N[C@@H](CCC(=O)O)C(=O)N[C@@H](CC(C)C)C(=O)N[C@@H](CO)C(=O)N[C@@H](CCCCN)C(=O)NCC(=O)N[C@H]1CSSC[C@@H](C(=O)O)NC(=O)CNC(=O)[C@H](CC(C)C)NC(=O)CNC(=O)[C@H](CO)NC(=O)[C@H](CCSC)NC(=O)[C@H](CO)NC(=O)CNC(=O)[C@H]([C@@H](C)CC)NC(=O)[C@H](CCCNC(=N)N)NC(=O)[C@H](CC(=O)O)NC(=O)[C@H](CC(C)C)NC(=O)[C@H](CCCCN)NC(=O)[C@H](CC(C)C)NC(=O)CNC(=O)[C@H](Cc2ccccc2)NC1=O` [BB] (Heptanoyl-ELSKGCFGLKLDRIGSMSGLGC-OH; disulfide 6-22 (inferred); C-terminus assumed) gave a half-life at 100 uM in data set [1] of 0.75 to 1.08 h. At NPR-B (NIH3T3, […]), the cGMP response relative to 1 uM CNP22 (%) at 0.01 µM was found to be 32 ± 4% and the cGMP response relative to 1 uM CNP22 (%) at 1 µM amounted to 84 ± 19%.
For `CC[C@H](C)[C@@H]1NC(=O)[C@H](CCCNC(=N)N)NC(=O)[C@H](CC(=O)O)NC(=O)[C@H](CC(C)C)NC(=O)[C@H](CCCCN)NC(=O)[C@H](CC(C)C)NC(=O)CNC(=O)[C@H](Cc2ccccc2)NC(=O)[C@@H](NC(=O)CNC(=O)[C@H](CCCCN)NC(=O)[C@H](CO)NC(=O)[C@H](CC(C)C)NC(=O)CNC(=O)CCOCCOCCOCCOCCOCCOCCOCCOCCOCCOCCOCCOCCNC(=O)CCCC[C@@H]2SC[C@@H]3NC(=O)N[C@@H]32)CSSC[C@@H](C(=O)O)NC(=O)CNC(=O)[C@H](CC(C)C)NC(=O)CNC(=O)[C@H](CO)NC(=O)[C@H](CCSC)NC(=O)[C@H](CO)NC(=O)CNC1=O` [(PEO12)-Biotin-CNP22], in that order: 2.33 h, 19% and 81%.
Take `CC[C@H](C)[C@@H]1NC(=O)[C@H](CCCNC(=N)N)NC(=O)[C@H](CC(=O)O)NC(=O)[C@H](CC(C)C)NC(=O)[C@H](CCCCN)NC(=O)[C@H](CC(C)C)NC(=O)CNC(=O)[C@H](Cc2ccccc2)NC(=O)[C@@H](NC(=O)CNC(=O)[C@H](CCCNC(=N)N)NC(=O)[C@H](CO)NC(=O)[C@H](CC(C)C)NC(=O)CNC(=O)[C@H](CCCNC(=N)N)NC(=O)[C@H](CCCNC(=N)N)NC(=O)[C@H](CC(N)=O)NC(=O)[C@H](C)NC(=O)CN)CSSC[C@@H](C(=O)O)NC(=O)CNC(=O)[C@H](CC(C)C)NC(=O)CNC(=O)[C@H](CO)NC(=O)[C@H](CCSC)NC(=O)[C@H](CO)NC(=O)CNC1=O` [AY] (H-GANRRGLSRGCFGLKLDRIGSMSGLGC-OH; disulfide 11-27 (inferred); N-terminus and C-terminus assumed): in data set [1], the half-life at 100 uM stood at 1.08 h. The cGMP response relative to 1 uM CNP22 (%) at 0.01 µM on NPR-B (setting [2]) was 59 ± 9%. The cGMP response relative to 1 uM CNP22 (%) at 1 µM at NPR-B (setting [3]) stood at 105 ± 20%.
For `CC[C@H](C)[C@@H]1NC(=O)[C@H](CCCNC(=N)N)NC(=O)[C@H](CC(=O)O)NC(=O)[C@H](CC(C)C)NC(=O)[C@H](CCCCN)NC(=O)[C@H](CC(C)C)NC(=O)CNC(=O)[C@H](Cc2ccccc2)NC(=O)[C@@H](NC(=O)CNC(=O)[C@H](CCCNC(=N)N)NC(=O)[C@H](CO)NC(=O)[C@H](CC(C)C)NC(=O)CNC(=O)[C@H](CO)NC(=O)[C@H](CO)NC(=O)[C@H](CC(N)=O)NC(=O)[C@H](C)NC(=O)CN)CSSC[C@@H](C(=O)O)NC(=O)CNC(=O)[C@H](CC(C)C)NC(=O)CNC(=O)[C@H](CO)NC(=O)[C@H](CCSC)NC(=O)[C@H](CO)NC(=O)CNC1=O` [CG] (H-GANSSGLSRGCFGLKLDRIGSMSGLGC-OH; disulfide 11-27 (inferred); N-terminus and C-terminus assumed), in that order: 1.58 h, 27 ± 1% and 88 ± 1%.
For “DLRVDTKSRAAWARLLQEHPNARKYKGANKKGLSKGCFGLKLDRIGSMSGLGC (disulfide 37-53) [BM]”, in that order: > 2.67 h, 61% and 101%.
For `CC[C@H](C)[C@@H]1NC(=O)[C@H](CCCNC(=N)N)NC(=O)[C@H](CC(=O)O)NC(=O)[C@H](CC(C)C)NC(=O)[C@H](CCCCN)NC(=O)[C@H](CC(C)C)NC(=O)CNC(=O)[C@H](Cc2ccccc2)NC(=O)[C@@H](NC(=O)CNC(=O)[C@H](CCCCN)NC(=O)[C@H](CO)NC(=O)[C@H](CC(C)C)NC(=O)CNC(=O)[C@H](CCCCN)NC(=O)[C@@H]2CCCN2C(=O)[C@H](CC(N)=O)NC(=O)[C@H](C)NC(=O)CNC(=O)[C@H](CCCCN)NC(=O)[C@H](Cc2ccc(O)cc2)NC(=O)[C@H](CCCCN)NC(=O)[C@H](CCCNC(=N)N)NC(=O)[C@H](C)NC(=O)[C@H](CC(N)=O)NC(=O)[C@@H]2CCCN2C(=O)[C@H](Cc2c[nH]cn2)NC(=O)[C@H](CCC(=O)O)NC(=O)[C@H](CCC(N)=O)NC(=O)CN)CSSC[C@@H](C(=O)O)NC(=O)CNC(=O)[C@H](CC(C)C)NC(=O)CNC(=O)[C@H](CO)NC(=O)[C@H](CCSC)NC(=O)[C@H](CO)NC(=O)CNC1=O` [CS] (H-GQEHPNARKYKGANPKGLSKGCFGLKLDRIGSMSGLGC-OH; disulfide 22-38 (inferred); N-terminus and C-terminus assumed), the half-life at 100 uM in data set [1] is > 2.67 h. Also, the cGMP response relative to 1 uM CNP22 (%) at 0.01 µM at NPR-B (setting [2]) is 19%. In addition, the cGMP response relative to 1 uM CNP22 (%) at 1 µM on NPR-B (setting [3]) was 61%.
For `CC[C@H](C)[C@@H]1NC(=O)[C@H](CCCNC(=N)N)NC(=O)[C@H](CC(=O)O)NC(=O)[C@H](CC(C)C)NC(=O)[C@H](CCCCN)NC(=O)[C@H](CC(C)C)NC(=O)CNC(=O)[C@H](Cc2ccccc2)NC(=O)[C@@H](NC(=O)CNC(=O)[C@H](CCCCN)NC(=O)[C@H](CO)NC(=O)[C@H](CC(C)C)NC(=O)CNC(=O)CCOCCOCCOCCOCCOCCOCCOCCOCCOCCOCCOCCOC)CSSC[C@@H](C(=O)O)NC(=O)CNC(=O)[C@H](CC(C)C)NC(=O)CNC(=O)[C@H](CO)NC(=O)[C@H](CCSC)NC(=O)[C@H](CO)NC(=O)CNC1=O` [PEO12-CNP22], in that order: ≥ 2.67 h, 12 ± 7% and 57 ± 18%.
On to `CCCCCCC(=O)N[C@@H](CCC(=O)O)C(=O)N[C@@H](CC(C)C)C(=O)N[C@@H](CO)C(=O)N[C@@H](CCC(=O)O)C(=O)NCC(=O)N[C@H]1CSSC[C@@H](C(=O)O)NC(=O)CNC(=O)[C@H](CC(C)C)NC(=O)CNC(=O)[C@H](CO)NC(=O)[C@H](CCSC)NC(=O)[C@H](CO)NC(=O)CNC(=O)[C@H]([C@@H](C)CC)NC(=O)[C@H](CCCNC(=N)N)NC(=O)[C@H](CC(=O)O)NC(=O)[C@H](CC(C)C)NC(=O)[C@H](CCCCN)NC(=O)[C@H](CC(C)C)NC(=O)CNC(=O)[C@H](Cc2ccccc2)NC1=O` [AW] (Heptanoyl-ELSEGCFGLKLDRIGSMSGLGC-OH; disulfide 6-22; C-terminus assumed), for which, in data set [1], the half-life at 100 uM was < 0.333 h.

For orientation: half-life means how long it takes for the measured level to halve. Lower therefore signals fast loss.
